According to patent publication US9669003B2, “Use of flavone and flavanone derivatives in preparation of sedative and hypnotic drugs” (priority 2012, dated 2017):
Marks after values point to notes of the source that are not given here.

What was measured:
Assay type in all cases: in vivo
[1] = tested on: Kunming mice; experiment: Influence on autonomic activity of normal mice (ZIL-2 mice autonomic activity meter, counts within 10 min); settings: intragastric, x ± s, n = 10; for Times of activities in 1 h after drug administration/10 min: 1 h after administration; for Times of activities in 2 h after drug administration/10 min: 2 h after administration; for Times of activities in 24 h after drug administration/10 min: 24 h after administration
How it was run: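 Kunming mice (10 per group, half each sex) were dosed at 25, 50 or 100 mg/kg in 0.5% CMC-Na. Spontaneous activity counts over 10 min were recorded at 1 h, 2 h and 24 h post-dose. Groups were compared by ANOVA with Dunnett's test after Levene's check.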

[2] = tested on: Kunming mice; experiment: Influence on hypnosis effect with pentobarbital sodium doses below the threshold (25 mg/kg i.p.); settings: pentobarbital sodium 25 mg/kg i.p. 60 min later, sleep observed in 30 min, n = 10
How it was run: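 Kunming mice (10 per group, half female) given single oral doses of 25, 50 or 100 mg/kg in 0.5% CMC-Na; 60 min later pentobarbital sodium 25 mg/kg i.p. Sleep (righting reflex lost >1 min) scored within 30 min as percentage asleep, χ2 test.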

[3] = tested on: Kunming mice; experiment: Influence on hypnosis effect with pentobarbital sodium doses at the threshold (50 mg/kg i.p.); settings: pentobarbital sodium 50 mg/kg i.p. 60 min later, x ± s, n = 10
How it was run: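 Kunming mice (10/group, half each sex) received compound in 0.5% CMC-Na intragastrically at 25, 50 or 100 mg/kg; 60 min later given 0.3% sodium pentobarbital 50 mg/kg i.p. Sleep latency and duration recorded by loss of righting reflex over 1 min; ANOVA and χ2 for sleep incidence.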

[4] = test drug 25 mg/kg intragastric single dose
[5] = test drug 50 mg/kg intragastric single dose
[6] = test drug 100 mg/kg intragastric single dose
[7] = 25 mg/kg intragastric single dose
[8] = 50 mg/kg intragastric single dose
[9] = 100 mg/kg intragastric single dose

Compound: COc1cc(OC)c2c(c1)OC(c1cc(OC)c(OC)c(OC)c1OC)CC2=O (stereo not drawn) [Example 66, 5,7,2′,3′,4′,5′-hexa methoxyl-flavanone]
- Times of activities in 1 h after drug administration/10 min ([1]; 25 mg/kg): 307.7 ± 54.6 /10 min
- Times of activities in 2 h after drug administration/10 min ([1]; 25 mg/kg): 281.3 ± 31.2 /10 min
- Times of activities in 24 h after drug administration/10 min ([1]; 25 mg/kg): 314.7 ± 66.7 /10 min
- Times of activities in 1 h after drug administration/10 min ([1]; 50 mg/kg): 275.8 ± 44.3 /10 min
- Times of activities in 2 h after drug administration/10 min ([1]; 50 mg/kg): 270.7 ± 46.3 /10 min
- Times of activities in 24 h after drug administration/10 min ([1]; 50 mg/kg): 314.1 ± 81.4 /10 min
- Times of activities in 1 h after drug administration/10 min ([1]; 100 mg/kg): 258.4 ± 40.3 /10 min
- Times of activities in 2 h after drug administration/10 min ([1]; 100 mg/kg): 243.9 ± 41.2 /10 min
- Times of activities in 24 h after drug administration/10 min ([1]; 100 mg/kg): 334.7 ± 62.9 /10 min
- Number of sleeping animals [2, 4]: 3
- rate of sleeping (%) [2, 4]: 30%
- Number of sleeping animals [2, 5]: 5
- rate of sleeping (%) [2, 5]: 50** %
- Number of sleeping animals [2, 6]: 8
- rate of sleeping (%) [2, 6]: 80*** %
- duration of sleep [3, 7]: 23.81 ± 25.29 min
- time to sleep [3, 7]: 5.37 ± 2.12 min
- duration of sleep [3, 8]: 27.79 ± 26.78 min
- time to sleep [3, 8]: 5.12 ± 2.65 min
- duration of sleep [3, 9]: 61.44 ± 47.33 min
- time to sleep [3, 9]: 3.14 ± 1.10 min

Compound: COc1cc2c(c(OC)c1OC)OC(c1cc(OC)c(OC)c(OC)c1OC)CC2=O (stereo not drawn) [Example 67, 6,7,8,3′,4′,5′,6′-hepta methoxyl-flavanone]
- Times of activities in 1 h after drug administration/10 min ([1]; 25 mg/kg): 287.7 ± 45.4 /10 min
- Times of activities in 2 h after drug administration/10 min ([1]; 25 mg/kg): 312.5 ± 54.8 /10 min
- Times of activities in 24 h after drug administration/10 min ([1]; 25 mg/kg): 307.4 ± 77.0 /10 min
- Times of activities in 1 h after drug administration/10 min ([1]; 50 mg/kg): 247.2 ± 44.5 /10 min
- Times of activities in 2 h after drug administration/10 min ([1]; 50 mg/kg): 251.3 ± 38.8 /10 min
- Times of activities in 24 h after drug administration/10 min ([1]; 50 mg/kg): 314.6 ± 94.9 /10 min
- Times of activities in 1 h after drug administration/10 min ([1]; 100 mg/kg): 223.4 ± 46.5 /10 min
- Times of activities in 2 h after drug administration/10 min ([1]; 100 mg/kg): 243.7 ± 40.6 /10 min
- Times of activities in 24 h after drug administration/10 min ([1]; 100 mg/kg): 301.9 ± 88.6 /10 min
- Number of sleeping animals [2, 4]: 5
- rate of sleeping (%) [2, 4]: 50** %
- Number of sleeping animals [2, 5]: 6
- rate of sleeping (%) [2, 5]: 60** %
- Number of sleeping animals [2, 6]: 7
- rate of sleeping (%) [2, 6]: 70** %
- duration of sleep [3, 7]: 80.69 ± 20.87 min
- time to sleep [3, 7]: 4.34 ± 1.26 min
- duration of sleep [3, 8]: 48.12 ± 22.48 min
- time to sleep [3, 8]: 4.09 ± 1.45 min
- duration of sleep [3, 9]: 54.43 ± 19.81 min
- time to sleep [3, 9]: 3.87 ± 2.98 min

Compound: COc1cc(C2Oc3c(OC)c(OC)c(OC)c(O)c3C(=O)C2OC)c(OC)c(OC)c1OC (stereo not drawn) [Example 68, 5-hydroxyl-3,6,7,8,3′,4′,5′,6′-octa methoxyl-flavanone]
- Times of activities in 1 h after drug administration/10 min ([1]; 25 mg/kg): 287.3 ± 47.9 /10 min
- Times of activities in 2 h after drug administration/10 min ([1]; 25 mg/kg): 267.7 ± 40.4 /10 min
- Times of activities in 24 h after drug administration/10 min ([1]; 25 mg/kg): 322.9 ± 76.0 /10 min
- Times of activities in 1 h after drug administration/10 min ([1]; 50 mg/kg): 248.2 ± 57.4 /10 min
- Times of activities in 2 h after drug administration/10 min ([1]; 50 mg/kg): 243.2 ± 54.6 /10 min
- Times of activities in 24 h after drug administration/10 min ([1]; 50 mg/kg): 319.6 ± 75.9 /10 min
- Times of activities in 1 h after drug administration/10 min ([1]; 100 mg/kg): 128.2 ± 30.9 /10 min
- Times of activities in 2 h after drug administration/10 min ([1]; 100 mg/kg): 241.7 ± 40.9 /10 min
- Times of activities in 24 h after drug administration/10 min ([1]; 100 mg/kg): 298.1 ± 80.2 /10 min
- Number of sleeping animals [2, 4]: 3
- rate of sleeping (%) [2, 4]: 30%
- Number of sleeping animals [2, 5]: 4
- rate of sleeping (%) [2, 5]: 40* %
- Number of sleeping animals [2, 6]: 6
- rate of sleeping (%) [2, 6]: 60** %
- duration of sleep [3, 7]: 20.69 ± 25.22 min
- time to sleep [3, 7]: 5.36 ± 2.23 min
- duration of sleep [3, 8]: 29.78 ± 28.77 min
- time to sleep [3, 8]: 5.09 ± 2.44 min
- duration of sleep [3, 9]: 64.55 ± 47.91 min
- time to sleep [3, 9]: 3.31 ± 1.14 min

Compound: COc1cc(C2Oc3c(cc(OC)c(OC)c3OC)C(=O)C2OC)c(O)c(OC)c1OC (stereo not drawn) [Example 69, 6′-hydroxyl-3,6,7,8,3′,4′,5′-hepta methoxyl-flavanone]
- Times of activities in 1 h after drug administration/10 min ([1]; 25 mg/kg): 322.3 ± 51.3 /10 min
- Times of activities in 2 h after drug administration/10 min ([1]; 25 mg/kg): 278.3 ± 40.3 /10 min
- Times of activities in 24 h after drug administration/10 min ([1]; 25 mg/kg): 299.1 ± 80.7 /10 min
- Times of activities in 1 h after drug administration/10 min ([1]; 50 mg/kg): 298.0 ± 41.5 /10 min
- Times of activities in 2 h after drug administration/10 min ([1]; 50 mg/kg): 251.7 ± 39.4 /10 min
- Times of activities in 24 h after drug administration/10 min ([1]; 50 mg/kg): 309.1 ± 91.0 /10 min
- Times of activities in 1 h after drug administration/10 min ([1]; 100 mg/kg): 289.3 ± 50.7 /10 min
- Times of activities in 2 h after drug administration/10 min ([1]; 100 mg/kg): 235.8 ± 47.4 /10 min
- Times of activities in 24 h after drug administration/10 min ([1]; 100 mg/kg): 320.4 ± 80.4 /10 min
- Number of sleeping animals [2, 4]: 3
- rate of sleeping (%) [2, 4]: 30%
- Number of sleeping animals [2, 5]: 5
- rate of sleeping (%) [2, 5]: 50* %
- Number of sleeping animals [2, 6]: 7
- rate of sleeping (%) [2, 6]: 70** %
- duration of sleep [3, 7]: 31.77 ± 22.78 min
- time to sleep [3, 7]: 4.98 ± 1.88 min
- duration of sleep [3, 8]: 57.73 ± 18.49 min
- time to sleep [3, 8]: 4.27 ± 1.62 min
- duration of sleep [3, 9]: 64.09 ± 31.23 min
- time to sleep [3, 9]: 3.87 ± 1.78 min

Compound: CCCc1cc(O)cc2c1C(=O)CC(c1ccc(-c3ccccc3)c([N+](=O)[O-])c1)O2 (stereo not drawn) [Example 70]
- Times of activities in 1 h after drug administration/10 min ([1]; 25 mg/kg): 233.5 ± 58.2 /10 min
- Times of activities in 2 h after drug administration/10 min ([1]; 25 mg/kg): 227.8 ± 32.9 /10 min
- Times of activities in 24 h after drug administration/10 min ([1]; 25 mg/kg): 316.0 ± 66.9 /10 min
- Times of activities in 1 h after drug administration/10 min ([1]; 50 mg/kg): 159.9 ± 45.0 /10 min
- Times of activities in 2 h after drug administration/10 min ([1]; 50 mg/kg): 141.0 ± 46.3 /10 min
- Times of activities in 24 h after drug administration/10 min ([1]; 50 mg/kg): 320.9 ± 81.4 /10 min
- Times of activities in 1 h after drug administration/10 min ([1]; 100 mg/kg): 129.3 ± 41.3 /10 min
- Times of activities in 2 h after drug administration/10 min ([1]; 100 mg/kg): 117.8 ± 39.6 /10 min
- Times of activities in 24 h after drug administration/10 min ([1]; 100 mg/kg): 320.7 ± 60.9 /10 min
- Number of sleeping animals [2, 4]: 6
- rate of sleeping (%) [2, 4]: 60** %
- Number of sleeping animals [2, 5]: 8
- rate of sleeping (%) [2, 5]: 80*** %
- Number of sleeping animals [2, 6]: 9
- rate of sleeping (%) [2, 6]: 90*** %
- duration of sleep [3, 7]: 47.57 ± 18.97 min
- time to sleep [3, 7]: 3.60 ± 1.69 min
- duration of sleep [3, 8]: 61.38 ± 27.39 min
- time to sleep [3, 8]: 3.21 ± 1.35 min
- duration of sleep [3, 9]: 73.09 ± 25.56 min
- time to sleep [3, 9]: 2.28 ± 1.13 min
